In PubChem BioAssay AID1963986 (Molecular Pharmacology Branch, DTP, NCI, 2024):

System: 171881-019-R-J1-PDC tumor spheroid viability
Assay: Anticancer human tumor 171881-019-R-J1-PDC patient-derived invasive breast carcinoma cell line growth inhibition [PI3K]
Details: spheroids with HUVEC and MSC; for IC50: curve of first compound; for viability, T/C: stronger effect = lower value
How it was run: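 Complex 3D spheroids (cancer cells + endothelial HUVEC + mesenchymal stem cells); drug pairs of targeted agent x inavolisib/alpelisib/duvelisib/copanlisib; half-log series from ~Cmax, max 10 microM if Cmax unknown; endpoint viability.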

[1] = second compound 0.0316 µM, first compound 0.0316 µM
[2] = second compound 0.0316 µM, first compound 0.1 µM
[3] = second compound 0.0316 µM, first compound 0.316 µM
[4] = second compound 0.0316 µM, first compound 1 µM
[5] = second compound 0.0316 µM, first compound 3.16 µM
[6] = second compound 0.0316 µM, first compound 10 µM
[7] = second compound 0.1 µM, first compound 0.0316 µM
[8] = second compound 0.1 µM, first compound 0.1 µM
[9] = second compound 0.1 µM, first compound 0.316 µM
[10] = second compound 0.1 µM, first compound 1 µM
[11] = second compound 0.1 µM, first compound 3.16 µM
[12] = second compound 0.1 µM, first compound 10 µM
[13] = second compound 0.316 µM, first compound 0.0316 µM
[14] = second compound 0.316 µM, first compound 0.1 µM
[15] = second compound 0.316 µM, first compound 0.316 µM
[16] = second compound 0.316 µM, first compound 1 µM
[17] = second compound 0.316 µM, first compound 3.16 µM
[18] = second compound 0.316 µM, first compound 10 µM
[19] = second compound 1 µM, first compound 0.0316 µM
[20] = second compound 1 µM, first compound 0.1 µM
[21] = second compound 1 µM, first compound 0.316 µM
[22] = second compound 1 µM, first compound 1 µM
[23] = second compound 1 µM, first compound 3.16 µM
[24] = second compound 1 µM, first compound 10 µM
[25] = second compound 0.00316 µM, first compound 0.0316 µM
[26] = second compound 0.00316 µM, first compound 0.1 µM
[27] = second compound 0.00316 µM, first compound 0.316 µM
[28] = second compound 0.00316 µM, first compound 1 µM
[29] = second compound 0.00316 µM, first compound 3.16 µM
[30] = second compound 0.00316 µM, first compound 10 µM
[31] = second compound 0.01 µM, first compound 0.0316 µM
[32] = second compound 0.01 µM, first compound 0.1 µM
[33] = second compound 0.01 µM, first compound 0.316 µM
[34] = second compound 0.01 µM, first compound 1 µM
[35] = second compound 0.01 µM, first compound 3.16 µM
[36] = second compound 0.01 µM, first compound 10 µM
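Note: spheroids exposed to compound for 7 days before viability read.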
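Throughout, for viability, T/C: 100% = DMSO vehicle-treated spheroids.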

`Cn1ncc(Cl)c1-c1cc(C(=O)NC(CN)Cc2cccc(F)c2)sc1Cl` (stereo unspecified) + CC(Nc1ncnc2nc[nH]c12)c1cc2cccc(Cl)c2c(=O)n1-c1ccccc1 was tested, and the IC50 (second compound 0.0316 µM) was 144 nM, the IC50 (second compound 0.1 µM) was 174 nM and the IC50 (second compound 0.316 µM) was 164 nM. The IC50 (second compound 1 µM) was 150 nM, the IC50 (second compound 3.16 µM) was 125 nM and the IC50 (second compound 10 µM) was 70.7 nM. The viability, T/C [1] was 88.2%, the viability, T/C [2] was 58.2% and the viability, T/C [3] was 32.5%. It also gave a viability, T/C [4] of 20.9%, a viability, T/C [5] of 13.4% and a viability, T/C [6] of 3.64%. It also gave a viability, T/C [7] of 81.7%, a viability, T/C [8] of 64.9% and a viability, T/C [9] of 33.2%. It also gave a viability, T/C [10] of 20.6%, a viability, T/C [11] of 13.3% and a viability, T/C [12] of 6.15%. For the same compound, the viability, T/C [13] was 86.4%, the viability, T/C [14] was 62.4% and the viability, T/C [15] was 32.8%. It also gave a viability, T/C [16] of 21.4%, a viability, T/C [17] of 13.1% and a viability, T/C [18] of 4.15%. It also gave a viability, T/C [19] of 72.2%, a viability, T/C [20] of 59.6% and a viability, T/C [21] of 33.7%. For the same compound, the viability, T/C [22] was 18.5%, the viability, T/C [23] was 11.6% and the viability, T/C [24] was 3.79%. The viability, T/C (second compound 3.16 µM, first compound 0.0316 µM) was 78.5%, the viability, T/C (second compound 3.16 µM, first compound 0.1 µM) was 55.3% and the viability, T/C (second compound 3.16 µM, first compound 0.316 µM) was 30.4%. The viability, T/C (second compound 3.16 µM, first compound 1 µM) was 17.1%, the viability, T/C (second compound 3.16 µM, first compound 3.16 µM) was 9% and the viability, T/C (second compound 3.16 µM, first compound 10 µM) was 2.75%. For the same compound, the viability, T/C (second compound 10 µM, first compound 0.0316 µM) was 62.5%, the viability, T/C (second compound 10 µM, first compound 0.1 µM) was 44.8% and the viability, T/C (second compound 10 µM, first compound 0.316 µM) was 25.2%. It also gave a viability, T/C (second compound 10 µM, first compound 1 µM) of 12.3%, a viability, T/C (second compound 10 µM, first compound 3.16 µM) of 6.81% and a viability, T/C (second compound 10 µM, first compound 10 µM) of 2.88%.

In the case of `CC(C)NCC(C(=O)N1CCN(c2ncnc3c2C(C)CC3O)CC1)c1ccc(Cl)cc1` (stereo unspecified) + COc1c(OCCCN2CCOCC2)ccc2c3n(c(=NC(=O)c4cnc(N)nc4)nc12)CCN3, the IC50 (second compound 0.00316 µM) is reported as 200 nM, the IC50 (second compound 0.01 µM) is reported as less than 31.6 nM and the IC50 (second compound 0.0316 µM) is reported as less than 31.6 nM. For the same compound, the IC50 (second compound 0.1 µM) was less than 31.6 nM, the IC50 (second compound 0.316 µM) was less than 31.6 nM and the IC50 (second compound 1 µM) was less than 31.6 nM. The viability, T/C [25] was 63.8%, the viability, T/C [26] was 57% and the viability, T/C [27] was 44.8%. For the same compound, the viability, T/C [28] was 27.6%, the viability, T/C [29] was 11.6% and the viability, T/C [30] was 8.17%. The viability, T/C [31] was 48.5%, the viability, T/C [32] was 47% and the viability, T/C [33] was 36.4%. It also gave a viability, T/C [34] of 24.1%, a viability, T/C [35] of 12.4% and a viability, T/C [36] of 8.98%. For the same compound, the viability, T/C [1] was 25%, the viability, T/C [2] was 24.9% and the viability, T/C [3] was 25.8%. For the same compound, the viability, T/C [4] was 14.4%, the viability, T/C [5] was 8.88% and the viability, T/C [6] was 5.68%. For the same compound, the viability, T/C [7] was 7.43%, the viability, T/C [8] was 8.22% and the viability, T/C [9] was 8.03%. The viability, T/C [10] was 6.41%, the viability, T/C [11] was 5.14% and the viability, T/C [12] was 3.1%. For the same compound, the viability, T/C [13] was 1.9%, the viability, T/C [14] was 2.03% and the viability, T/C [15] was 2.26%. It also gave a viability, T/C [16] of 2.16%, a viability, T/C [17] of 1.57% and a viability, T/C [18] of 1.13%. It also gave a viability, T/C [19] of 0.99%, a viability, T/C [20] of 1.4% and a viability, T/C [21] of 1.49%. For the same compound, the viability, T/C [22] was 1.35%, the viability, T/C [23] was 1.05% and the viability, T/C [24] was 0.68%.

`Cn1nccc1Nc1nccc(-c2ccn(C(CO)c3ccc(Cl)c(F)c3)c(=O)c2)n1` (stereo unspecified) + CC(Nc1ccc2c(c1)OCCn1cc(N3C(=O)OCC3C(F)F)nc1-2)C(N)=O showed an IC50 (second compound 0.00316 µM) of 265 nM, an IC50 (second compound 0.01 µM) of 113 nM and an IC50 (second compound 0.0316 µM) of less than 31.6 nM. It also gave an IC50 (second compound 0.1 µM) of less than 31.6 nM, an IC50 (second compound 0.316 µM) of less than 31.6 nM and an IC50 (second compound 1 µM) of less than 31.6 nM. It also gave a viability, T/C [25] of 92.5%, a viability, T/C [26] of 67.2% and a viability, T/C [27] of 46.7%. It also gave a viability, T/C [28] of 33.7%, a viability, T/C [29] of 22% and a viability, T/C [30] of 19.2%. The viability, T/C [31] was 69.6%, the viability, T/C [32] was 53.9% and the viability, T/C [33] was 30.6%. For the same compound, the viability, T/C [34] was 27.4%, the viability, T/C [35] was 18.2% and the viability, T/C [36] was 15%. For the same compound, the viability, T/C [1] was 47.4%, the viability, T/C [2] was 37.9% and the viability, T/C [3] was 23.1%. The viability, T/C [4] was 17.1%, the viability, T/C [5] was 11.8% and the viability, T/C [6] was 9.67%. It also gave a viability, T/C [7] of 33.5%, a viability, T/C [8] of 23.3% and a viability, T/C [9] of 15.9%. The viability, T/C [10] was 9.87%, the viability, T/C [11] was 7.9% and the viability, T/C [12] was 5.46%. The viability, T/C [13] was 21.6%, the viability, T/C [14] was 16.9% and the viability, T/C [15] was 10.6%. It also gave a viability, T/C [16] of 6.63%, a viability, T/C [17] of 4.45% and a viability, T/C [18] of 2.82%. The viability, T/C [19] was 18.3%, the viability, T/C [20] was 13.9% and the viability, T/C [21] was 7.66%. It also gave a viability, T/C [22] of 4.72%, a viability, T/C [23] of 3.76% and a viability, T/C [24] of 2.26%.
